The text below walks through data of US5804599A, “Interleukin-1 production inhibiting compound” (Kyowa Hakko Kogyo Co., Ltd., priority 1994, dated 1998).

One data set has as its system bacteria. Conditions: in words; cited from earlier work.
In a further data set the test system is IL-1 β. Briefly: Inhibiting activity of the production of IL-1 (LPS-stimulated, PMA-differentiated THP-1 cells, ELISA). Conditions: Homo sapiens, read-out: IC50 (50% inhibitory concentration) of IL-1 production. Type of data set: cell-based. The protocol: Inhibiting Activity of the production of IL-1
With respect to Compound (I) of the present invention, the inhibiting activity of production of IL-1 β derived from THP-1 cells (ATCC No. TIB 202) of a human monocyte was examined. The amount of IL-1 β was determined by the ELISA method.
The THP-1 cells were suspended in an RPMI 1640 culture solution comprising 10% inactivated fetal bovine serum at a concentration of 1×10^5 cells/ml. The suspension was charged in a 24-well plate at a volume of 1 ml/well. PMA (phorbol 12-myristate 13-acetate, made by Wako Pure Chemical Industries, Ltd.; final concentration 30 nM) was added thereto, and the mixture was cultured in a mixed gas of 5% CO2 and 95% air at 37° C. for 65 hours. The cells were differentiated in a macrophage form.
The cultivation plate was gently washed with a serum-free RPMI 1640 culture solution to remove the cells not adhered thereto, and the residue was cultured for 4 hours in a serum-free RPMI 1640 culture solution (1 ml/well) to which LPS (lipopolysaccharide, made by Difco Laboratories; a final concentration 25 μg/ml) and a compound to be tested were added simultaneously.
After the completion of the cultivation, the amount of IL-1 β which was released in the cultivated supernatant was determined using an IL-1 β determination kit (made by Amersham Corp.).
Percent inhibition of IL-1 production was calculated using the following equation to obtain IC50 (50% inhibitory concentration).
Percent inhibition of IL-1 production (%) =[(A-B)/(A-C)]×100
A: amount of IL-1 produced when only LPS is added
B: amount of IL-1 produced when LPS and the compound to be tested are added
C: amount of IL-1 when LPS is not added
Background: ELISA stands for enzyme-linked immunosorbent assay.

For data set [1], the system named is Enterococcus faecium ATCC 10541. Briefly: Antibacterial activity (MIC), agar dilution method. Type of data set: cell-based. Conditions: ATCC10541, pH 7.0. Here is the method: (§1) Antibacterial activity was determined by an agar dilution method using a medium (pH 7.0) comprising 3 g/l bactotrypton (made by Difco Laboratories), 3 g/l meat extract, 1 g/l yeast extract, 1 g/l glucose and 16 g/l agar.
Background: In agar dilution, organisms are placed on agar that contains the substance at set levels.

Data set [2] deals with Bacillus subtilis No. 10707. Briefly: Antibacterial activity (MIC), agar dilution method. Type of data set: cell-based. Conditions: pH 7.0. The protocol: as §1
Data set [3] deals with Staphylococcus aureus ATCC 6538P. Briefly: Antibacterial activity (MIC), agar dilution method. It is filed as cell-based. Conditions: ATCC6538P, pH 7.0. Here is the method:
as §1

[4] abbreviates: IL-1 β release from THP-1 cells, LPS 25 μg/ml, 4 hours, serum-free RPMI 1640.

Converted amounts (≈) assume the structure as drawn. Read-outs that look alike come from different tables or passages of the source.

Take `O=C(/C=C/C=C/C1CCCCC1)NC1=CC(O)(/C=C/C=C/C=C/C(=O)NC2=C(O)CCC2=O)C2OC2C1=O` (stereo not drawn) [Alisamycin]: the antibacterial activity entry in the data set with bacteria was “known to exhibit antibacterial activity”.

As a reminder, the MIC is the lowest concentration found to suppress growth. A high value points to weaker potency. Turning to `CC(C)C/C=C/C=C/C(=O)NC1=CC(O)(/C=C/C=C/C=C/C(=O)NC2=C(O)CCC2=O)C2OC2C1=O` (stereo not drawn) [EI-1511-3], the results for the Solubility result in the data set “Solubility” (in acetone), in the data set “Solubility” (in dimethyl sulfoxide) and in “Solubility” (in methanol) were “easily soluble”, “easily soluble” and “soluble”, respectively. The IC50 with IL-1 β (setting [4]) worked out at 5.4 µM. Also, the MIC in data set [1], in data set [2] and in data set [3] was 20 µg/mL (≈ 40.4 µM) in each case.

On to `CCC(C)/C=C/C=C/C=C/C(=O)NC1=CC(O)(/C=C/C=C/C=C/C(=O)NC2=C(O)CCC2=O)C2OC2C1=O` (stereo not drawn) [EI-1511-5], for which the Solubility entry is reported as “easily soluble” in the data set “Solubility” (in acetone), “easily soluble” in the data set “Solubility” (in dimethyl sulfoxide) and “soluble” in “Solubility” (in methanol). The IC50 in the data set on IL-1 β (THP-1, 4 h) was 3.6 µM. Further, the MIC in data set [1], in data set [2] and in data set [3] was 20 µg/mL (≈ 38.4 µM) in each case.

Take `CCCCC(C)/C=C/C(=O)NC1=CC(O)(/C=C/C=C/C=C/C(=O)NC2=C(O)CCC2=O)C2OC2C1=O` (stereo not drawn) [EI-1625-2]: the IC50 in the data set with IL-1 β (setting [4]) was determined as 5.4 µM. The figures for the minimum inhibitory concentration (MIC) in data set [1], in data set [2] and in data set [3] were 20 µg/mL (≈ 40.3 µM), 5 µg/mL (≈ 10.1 µM) and 10 µg/mL (≈ 20.1 µM), respectively.

For `CCCC[C@@H](C)/C=C(C)/C=C(\C)C(=O)NC1=C[C@@](O)(/C=C/C=C/C=C/C(=O)NC2=C(O)CCC2=O)[C@@H]2O[C@@H]2C1=O` [Manumycin A], the antibacterial activity entry with bacteria was “known to exhibit antibacterial activity”.

On to `CCCCC(C)/C=C(\C)C(=O)NC1=CC(O)(/C=C/C=C/C=C/C(=O)NC2=C(O)CCC2=O)C2OC2C1=O` (stereo not drawn) [Manumycin B], for which the antibacterial activity entry with bacteria is on record as “known to exhibit antibacterial activity”.

With `CCCCC(C)/C=C(C)/C=C/C(=O)NC1=CC(O)(/C=C/C=C/C=C/C(=O)NC2=C(O)CCC2=O)C2OC2C1=O` (stereo not drawn) [Manumycin C], in the data set with bacteria, the antibacterial activity result was “known to exhibit antibacterial activity”.

`CC(C)/C=C/C=C/C=C/C(=O)NC1=C[C@@](O)(/C=C/C=C/C=C/C(=O)NC2=C(O)CCC2=O)C2OC2C1=O` (stereo partly drawn) [Manumycin G]: in the data set with bacteria, the antibacterial activity entry is reported as “known to exhibit antibacterial activity”.

For the molecule `CC(C)C/C=C/C=C/C=C/C(=O)NC1=CC(O)(/C=C/C=C/C=C/C(=O)NC2=C(O)CCC2=O)C2OC2C1=O` (stereo not drawn) [U-56407], the antibacterial activity entry with bacteria is listed as “known to exhibit antibacterial activity”.
